Active and inactive are the calls of the source.
How the values were obtained:
[1] = molecular target: DNA repair and recombination protein RAD54-like (Homo sapiens, UniProt Q92698); assay: inhibitors of human RAD54 branch migration, confirmation, biochemical, fluorescence, cherry-picked samples, dose series (AID 651657); format: functional
[2] = MDA-MB-231 cell growth inhibition, dose response, cytotoxicity control for RAD54 inhibitor project, CellTiter-Glo luminescence, cherry-pick (AID 651692); format: functional, cell-based
[3] = molecular target: T1, Ubiquitin-conjugating enzyme E2 N (Homo sapiens, UniProt P61088); format: functional
T1 sequence (P61088 whole entry): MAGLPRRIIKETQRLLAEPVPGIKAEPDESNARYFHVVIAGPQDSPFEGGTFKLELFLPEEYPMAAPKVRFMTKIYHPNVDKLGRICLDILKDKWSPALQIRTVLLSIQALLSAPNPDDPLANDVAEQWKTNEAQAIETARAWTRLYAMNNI

[4] = molecular target: T2, Apoptotic protease-activating factor 1 (Homo sapiens, UniProt O14727); format: functional
T2 sequence (O14727 whole entry): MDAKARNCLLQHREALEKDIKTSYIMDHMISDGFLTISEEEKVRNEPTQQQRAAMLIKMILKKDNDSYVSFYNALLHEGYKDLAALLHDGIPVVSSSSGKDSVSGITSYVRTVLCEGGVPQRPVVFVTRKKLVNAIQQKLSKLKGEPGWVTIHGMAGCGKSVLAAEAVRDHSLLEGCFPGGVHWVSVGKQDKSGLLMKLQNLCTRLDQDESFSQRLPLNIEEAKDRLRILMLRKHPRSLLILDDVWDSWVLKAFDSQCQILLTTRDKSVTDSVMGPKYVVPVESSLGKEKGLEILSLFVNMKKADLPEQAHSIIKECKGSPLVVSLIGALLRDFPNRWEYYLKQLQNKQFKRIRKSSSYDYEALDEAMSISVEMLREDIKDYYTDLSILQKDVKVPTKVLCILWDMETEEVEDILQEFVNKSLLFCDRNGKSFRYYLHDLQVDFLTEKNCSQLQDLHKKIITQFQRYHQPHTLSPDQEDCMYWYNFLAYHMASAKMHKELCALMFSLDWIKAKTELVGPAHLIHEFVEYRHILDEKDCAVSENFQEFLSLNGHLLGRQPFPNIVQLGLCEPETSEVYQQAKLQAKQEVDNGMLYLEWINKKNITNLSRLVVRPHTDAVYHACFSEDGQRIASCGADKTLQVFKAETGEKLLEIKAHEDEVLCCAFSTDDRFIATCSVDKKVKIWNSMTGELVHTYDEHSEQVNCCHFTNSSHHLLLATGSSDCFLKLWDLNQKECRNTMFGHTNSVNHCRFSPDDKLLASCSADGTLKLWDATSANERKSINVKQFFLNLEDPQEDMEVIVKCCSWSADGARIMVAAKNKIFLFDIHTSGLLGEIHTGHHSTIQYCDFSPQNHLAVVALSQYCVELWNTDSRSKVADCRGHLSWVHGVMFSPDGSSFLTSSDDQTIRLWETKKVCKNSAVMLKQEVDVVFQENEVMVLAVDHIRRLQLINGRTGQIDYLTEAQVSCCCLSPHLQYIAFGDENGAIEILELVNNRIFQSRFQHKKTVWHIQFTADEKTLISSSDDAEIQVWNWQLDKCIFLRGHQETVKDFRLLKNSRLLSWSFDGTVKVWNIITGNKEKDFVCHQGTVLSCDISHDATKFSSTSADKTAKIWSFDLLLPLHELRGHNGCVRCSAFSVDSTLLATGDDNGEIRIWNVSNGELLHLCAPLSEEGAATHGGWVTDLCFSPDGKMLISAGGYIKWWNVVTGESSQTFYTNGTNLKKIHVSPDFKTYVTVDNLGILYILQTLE

[5] = molecular target: T1, Ubiquitin-conjugating enzyme E2 N; format: functional; remark: listed apart in the source
Melanocortin receptor 4 = Melanocortin receptor 4 (Homo sapiens, UniProt P32245); format: functional, cell-based;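 further: Cell-based assay with luminescence read-out, confirmatory dose-response testing for agonist activity of biased ligands at MC4R; human U2OS cells with tagged receptor and beta-arrestin; potency of agonists that increase receptor coupling to beta-arrestin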
Melanocortin receptor 4, sequence (P32245 whole entry): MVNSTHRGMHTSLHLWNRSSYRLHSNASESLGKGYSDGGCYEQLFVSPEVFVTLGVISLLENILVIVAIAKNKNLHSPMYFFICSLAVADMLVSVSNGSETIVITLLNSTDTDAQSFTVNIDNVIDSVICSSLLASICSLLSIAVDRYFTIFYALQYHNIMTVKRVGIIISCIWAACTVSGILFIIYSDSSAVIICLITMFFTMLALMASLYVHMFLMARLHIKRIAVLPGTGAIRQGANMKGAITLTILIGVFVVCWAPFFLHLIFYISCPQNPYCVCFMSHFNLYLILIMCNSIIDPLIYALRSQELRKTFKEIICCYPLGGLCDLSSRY

Bcl-2-related protein A1 = molecular target: T3, Bcl-2-related protein A1 (Mus musculus, UniProt Q07440); format: functional;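 further: confirmatory dose–response counterscreen on Bfl-1, used to check hits from a UBC13 polyubiquitin inhibitor campaign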
T3 sequence (Q07440 whole entry): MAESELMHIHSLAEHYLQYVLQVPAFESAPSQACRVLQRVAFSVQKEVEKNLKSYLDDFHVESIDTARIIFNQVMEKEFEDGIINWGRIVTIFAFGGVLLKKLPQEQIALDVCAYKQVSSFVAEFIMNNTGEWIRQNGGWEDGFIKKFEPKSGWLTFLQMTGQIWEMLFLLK

[6] = molecular target: Glucose-6-phosphate 1-dehydrogenase (Homo sapiens, UniProt P11413); assay: human G6PD enzyme inhibitors, dose response, selectivity assay for P. falciparum G6PD inhibitor project, biochemical, fluorescence (AID 504792); format: functional
Glucose-6-phosphate 1-dehydrogenase, sequence (P11413 whole entry): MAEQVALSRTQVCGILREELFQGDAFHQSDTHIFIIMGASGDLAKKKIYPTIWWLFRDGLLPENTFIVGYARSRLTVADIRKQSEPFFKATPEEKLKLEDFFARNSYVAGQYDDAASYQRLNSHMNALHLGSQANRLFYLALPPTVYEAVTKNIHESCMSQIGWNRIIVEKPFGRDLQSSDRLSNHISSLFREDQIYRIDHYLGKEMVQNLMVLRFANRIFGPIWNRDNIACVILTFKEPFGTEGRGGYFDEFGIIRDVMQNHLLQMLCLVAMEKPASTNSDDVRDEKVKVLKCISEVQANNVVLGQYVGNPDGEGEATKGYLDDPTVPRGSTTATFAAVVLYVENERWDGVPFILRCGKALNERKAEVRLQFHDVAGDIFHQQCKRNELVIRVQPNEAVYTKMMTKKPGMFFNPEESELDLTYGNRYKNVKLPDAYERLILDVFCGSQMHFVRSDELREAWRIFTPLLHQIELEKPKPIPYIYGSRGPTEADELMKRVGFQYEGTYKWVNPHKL

[7] = molecular target: G-protein coupled receptor 55 (Homo sapiens, UniProt Q9Y2T6); assay: GPR55 agonists via beta-arrestin recruitment, primary screen, imaging, U2OS cells, beta-arrestin-GFP redistribution (AID 1961); format: functional
G-protein coupled receptor 55, sequence (Q9Y2T6 whole entry): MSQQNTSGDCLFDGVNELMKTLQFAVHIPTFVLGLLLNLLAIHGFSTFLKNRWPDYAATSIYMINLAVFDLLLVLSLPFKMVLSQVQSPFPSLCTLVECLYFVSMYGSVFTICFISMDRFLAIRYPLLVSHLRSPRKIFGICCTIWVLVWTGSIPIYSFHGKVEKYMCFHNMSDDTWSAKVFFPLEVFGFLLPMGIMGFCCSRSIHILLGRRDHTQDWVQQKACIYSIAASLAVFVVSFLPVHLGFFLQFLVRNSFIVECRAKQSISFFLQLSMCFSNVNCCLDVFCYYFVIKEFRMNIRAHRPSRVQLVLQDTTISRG

Trypsin = Trypsin (Sus scrofa, UniProt P00761); assay: porcine trypsin inhibitors, dose response, selectivity assay for Rce1 protease inhibitor project, biochemical, quenched peptide fluorescence, cherry-pick (AID 488789)
Trypsin, sequence (P00761 whole entry): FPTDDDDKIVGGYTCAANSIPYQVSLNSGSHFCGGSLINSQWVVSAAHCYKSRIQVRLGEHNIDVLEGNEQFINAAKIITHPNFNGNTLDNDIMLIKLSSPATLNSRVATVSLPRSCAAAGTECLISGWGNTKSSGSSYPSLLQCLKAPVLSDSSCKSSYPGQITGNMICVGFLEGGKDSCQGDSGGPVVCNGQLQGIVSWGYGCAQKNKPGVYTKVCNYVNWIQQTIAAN

CAAX prenyl protease 2 = molecular target: T4, CAAX prenyl protease 2 (Saccharomyces cerevisiae S288c, UniProt Q03530); format: biochemical
T4 sequence (Q03530 whole entry): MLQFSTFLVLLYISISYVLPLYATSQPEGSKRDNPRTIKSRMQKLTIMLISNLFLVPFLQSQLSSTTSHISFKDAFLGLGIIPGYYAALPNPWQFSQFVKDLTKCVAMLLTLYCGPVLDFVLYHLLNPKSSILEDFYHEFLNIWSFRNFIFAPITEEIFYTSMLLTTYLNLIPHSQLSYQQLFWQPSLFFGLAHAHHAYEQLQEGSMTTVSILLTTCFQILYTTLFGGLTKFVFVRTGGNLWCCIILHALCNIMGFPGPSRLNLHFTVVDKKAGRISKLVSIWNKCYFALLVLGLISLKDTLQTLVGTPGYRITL

[8] = mammalian cell cytotoxicity, dose response, cytotoxicity control, plate reader, cherry-pick samples (AID 504397); format: functional, cell-based

DNA repair and recombination protein RAD54-like, sequence (Q92698 whole entry): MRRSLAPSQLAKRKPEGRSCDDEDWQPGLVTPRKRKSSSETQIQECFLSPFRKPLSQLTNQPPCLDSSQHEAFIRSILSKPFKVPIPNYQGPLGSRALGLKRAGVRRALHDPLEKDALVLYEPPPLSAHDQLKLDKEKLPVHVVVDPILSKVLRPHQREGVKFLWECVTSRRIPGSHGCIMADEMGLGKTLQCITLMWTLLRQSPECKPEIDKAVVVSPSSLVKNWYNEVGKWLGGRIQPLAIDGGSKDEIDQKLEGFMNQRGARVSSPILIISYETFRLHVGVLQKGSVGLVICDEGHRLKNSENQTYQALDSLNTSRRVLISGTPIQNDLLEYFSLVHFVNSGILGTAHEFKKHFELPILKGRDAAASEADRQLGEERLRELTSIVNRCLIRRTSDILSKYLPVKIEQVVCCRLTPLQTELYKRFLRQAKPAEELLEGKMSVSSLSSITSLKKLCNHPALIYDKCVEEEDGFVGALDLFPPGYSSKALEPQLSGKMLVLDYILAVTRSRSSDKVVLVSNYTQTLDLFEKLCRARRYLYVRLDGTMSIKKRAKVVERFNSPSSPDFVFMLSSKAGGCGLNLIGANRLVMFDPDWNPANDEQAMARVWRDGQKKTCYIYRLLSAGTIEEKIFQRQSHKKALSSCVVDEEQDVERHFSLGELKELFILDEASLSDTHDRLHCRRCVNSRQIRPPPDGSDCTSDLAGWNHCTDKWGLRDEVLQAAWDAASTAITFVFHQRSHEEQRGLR

Row | Compound | AC50 [1] | AC50 [2] | IC50 [3] | IC50 [4] | IC50 [5] | EC50 (Melanocortin receptor 4) | IC50 (Bcl-2-related protein A1) | IC50 [6] | EC50 [7] | AC50 (Trypsin) | AC50 (CAAX prenyl protease 2) | AC50 [8]
1 | Cc1ccc(-c2csc3nc4c5ccccc5c(NCCCN(C)C)nn4c(=O)c23)cc1 | 13.3 µM (active) | 13.6 µM (active) | 13.7 µM (active) | 40 µM (active) | 3.7 µM (active) | > 89.2 µM (inactive) | > 20 µM (inactive) | – | – | – | – | –
2 | Cc1cc(NC(=O)c2oc3ccccc3c2C)ccc1-n1cnnn1 | – | – | – | – | – | – | – | > 80 µM (inactive) | 2.68 µM (active) | > 100 µM (inactive) | 0.558 µM (active) | > 350 µM (inactive)

Source: ChEMBL document CHEMBL1201862, “PubChem BioAssay data set” (2004)
